Measurements as given in patent US20180282260A1, “1-AMINOCYCLOPROPANE-1-CARBOXYLIC ACID POLYMORPHS” (Valent BioSciences LLC, priority 2017, published 2018).

Columns and labels:
cotton cotyledons = assay: Cotton cotyledon bioefficacy assay (ethylene production by gas chromatography); assay type: in vivo; conditions: for Ethylene production in cotton cotyledons, average: Average of trials, 500 ppm ACC, 48 hours after application; for Ethylene production in cotton cotyledons: 500 ppm ACC sprayed on 10-day old cotyledons, removed 48 hours after application, incubated 4 to 7 hours
Experimental: The ACC anhydrate from Chem-Impex International, Inc., an ACC anhydrate prepared by Inogent Laboratories of India and the ACC trihydrate of the present invention were each dissolved with water to 500 ppm w!w of ACC and applied separately to individual sets of 10-day old cotton cotyledons by a hand sprayer in 4 separate trials. 48 hours after application the cotyledons were removed and incubated in sealed vials for 4 to 7 hours. Following incubation, the cotyledons were measured for ethylene gas production by gas chromatography.

[1] = Crystal form stability under high humidity; assay type: physicochemical

| Compound | Ethylene production in cotton cotyledons, average (cotton cotyledons) [nL C2H4/g/hr] | Ethylene production in cotton cotyledons (cotton cotyledons; Trial 1) [nL C2H4/g/hr] | Ethylene production in cotton cotyledons (cotton cotyledons; Trial 2) [nL C2H4/g/hr] | Ethylene production in cotton cotyledons (cotton cotyledons; Trial 3) [nL C2H4/g/hr] | Ethylene production in cotton cotyledons (cotton cotyledons; Trial 4) [nL C2H4/g/hr] | Ethylene production in cotton cotyledons, average (cotton cotyledons; trihydrate) [nL C2H4/g/hr] | Ethylene production in cotton cotyledons (cotton cotyledons; Trial 1, trihydrate) [nL C2H4/g/hr] | Ethylene production in cotton cotyledons (cotton cotyledons; Trial 2, trihydrate) [nL C2H4/g/hr] | Ethylene production in cotton cotyledons (cotton cotyledons; Trial 3, trihydrate) [nL C2H4/g/hr] | Ethylene production in cotton cotyledons (cotton cotyledons; Trial 4, trihydrate) [nL C2H4/g/hr] | Stability of crystal form [1] |
| --- | --- | --- | --- | --- | --- | --- | --- | --- | --- | --- | --- |
| NC1(C(=O)O)CC1 [Chem-Impex Anhydrate, 1-aminocyclopropane-1-carboxylic acid anhydrate] | 25.66 | 28.14 | 23.18 |  |  |  |  |  |  |  |  |
| NC1(C(=O)O)CC1 [Inogent Anhydrate] | 20.07 | 25.00 | 20.33 | 17.53 | 17.43 |  |  |  |  |  |  |
| NC1(C(=O)O)CC1 [Trihydrate, 1-aminocyclopropane-1-carboxylic acid trihydrate] |  |  |  |  |  | 22.71 | 15.06 | 22.04 | 36.30 | 17.46 | most stable crystal form of ACC under high humidity |
